Assay results as given in the Kinase Knowledgebase extract (Sharma et al. 2016).
pIC50: −log10 of the molar value.

These molecules were tested against MAPK14 (human) (UniProt Q16539) (assay: Inhibition of MAPK14 Kinase Activity).
Chain of MAPK14 (human) (Q16539 whole entry, looked up): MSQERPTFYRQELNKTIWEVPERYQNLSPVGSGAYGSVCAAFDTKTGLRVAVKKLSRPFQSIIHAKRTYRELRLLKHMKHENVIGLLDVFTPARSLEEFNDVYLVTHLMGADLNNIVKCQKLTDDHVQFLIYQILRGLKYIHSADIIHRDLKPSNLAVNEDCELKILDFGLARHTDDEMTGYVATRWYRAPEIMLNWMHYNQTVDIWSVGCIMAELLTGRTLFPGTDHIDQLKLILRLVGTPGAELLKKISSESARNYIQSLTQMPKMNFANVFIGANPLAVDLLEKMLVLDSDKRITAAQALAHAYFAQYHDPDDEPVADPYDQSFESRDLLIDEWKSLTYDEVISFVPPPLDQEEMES
For `CCNC(=O)c1ccc(C)c(-c2ccc3c(-c4ccc(F)nc4)n[nH]c3c2)c1`, the pIC50 was > 5.00. `CCNC(=O)c1cc(F)c(C)c(-c2ccc3c(-c4ccc(C)cc4)n[nH]c3c2)c1` was tested, and the pIC50 was > 5.00. In the case of `Cc1c(F)cc(C(=O)Nc2ncccn2)cc1-c1ccc2c(cnn2-c2ccccc2)c1`, the pIC50 was > 5.00. In the case of `CCNC(=O)c1cc(F)c(C)c(-c2ccc3c(-c4ccc(Cl)cc4)n[nH]c3c2)c1`, the pIC50 was > 5.00. For `Cc1c(F)cc(C(=O)NC2CC2)cc1-c1ccc2c(cnn2-c2ccc(NCCN(C)C)cc2)c1`, the pIC50 was > 5.00. In the case of `Cc1c(F)cc(C(=O)NC2CC2)cc1-c1ccc2c(cnn2Cc2cc[n+]([O-])cc2)c1`, the pIC50 was > 5.00. `Cc1c(F)cc(C(=O)NC2CCCC2)cc1-c1ccc2c(cnn2-c2ccccc2)c1` was tested, and the pIC50 was > 5.00. In the case of `CCNC(=O)c1ccc(C)c(-c2ccc3c(-c4cc(C)nn4C)n[nH]c3c2)c1`, the pIC50 was > 5.00. With `Cc1c(F)cc(C(=O)NC2CC2)cc1-c1ccc2c(cnn2Cc2ccc(F)cc2)c1` the pIC50 was > 5.00. With `Cc1c(F)cc(C(=O)NC2CC2)cc1-c1ccc2c(ccn2-c2cccnc2)c1` the pIC50 was > 5.00. With `Cc1ccc(C(=O)Nc2ccc(F)cc2)cc1-c1ccc2c(cnn2-c2ccccc2)c1` the pIC50 was > 5.00. `CCn1nccc1NC(=O)c1cc(F)c(C)c(-c2ccc3c(-c4ccc(F)cc4)n[nH]c3c2)c1` was tested, and the pIC50 was > 5.00. For `Cc1c(F)cc(C(=O)NC2CC2)cc1-c1ccc2c(cnn2Cc2ccccn2)c1`, the pIC50 was > 5.00. In the case of `Cc1c(F)cc(C(=O)NC2CC2)cc1-c1ccc2c(cnn2Cc2ccc(C(F)(F)F)cc2)c1`, the pIC50 was > 5.00. For `Cc1c(F)cc(C(=O)NC2CCC2)cc1-c1ccc2c(cnn2-c2ccccc2)c1`, the pIC50 was > 5.00. With `CCNC(=O)c1cc(F)c(C)c(-c2ccc3c(-c4cccnc4)n[nH]c3c2)c1` the pIC50 was > 5.00. With `Cc1c(F)cc(C(=O)NC2CC2)cc1-c1ccc2c(ccn2-c2ccccn2)c1` the pIC50 was > 5.00. `Cc1c(F)cc(C(=O)NC2CC2)cc1-c1ccc2c(ccn2-c2ccc(C#N)cc2)c1` was tested, and the pIC50 was > 5.00. In the case of `Cc1c(F)cc(C(=O)NC2CC2)cc1-c1ccc2c(cnn2-c2cc(=O)[nH]cn2)c1`, the pIC50 was > 5.00. For `CCNC(=O)c1ccc(C)c(-c2ccc3c(-c4ccc(S(C)(=O)=O)cc4)n[nH]c3c2)c1`, the pIC50 was > 5.00. For `CCNC(=O)c1cc(F)c(C)c(-c2ccc3c(-c4ccc(OC)nc4)n[nH]c3c2)c1`, the pIC50 was > 5.00. For `Cc1c(F)cc(C(=O)NC(C)C)cc1-c1ccc2c(cnn2-c2ccccc2)c1`, the pIC50 was > 5.00. For `CCNC(=O)c1ccc(C)c(-c2ccc3c(-c4ccc(OC)cc4)n[nH]c3c2)c1`, the pIC50 was > 5.00. For `Cc1ccc(C(=O)NC2CC2)cc1-c1ccc2c(-c3ccc(F)cc3)n[nH]c2c1`, the pIC50 was > 5.00. In the case of `Cc1c(F)cc(C(=O)NC2CC2)cc1-c1ccc2c(cnn2-c2ccc(F)cc2)c1`, the pIC50 was > 5.00. `Cc1c(F)cc(C(=O)Nc2cc[nH]n2)cc1-c1ccc2c(cnn2-c2ccccc2)c1` was tested, and the pIC50 was > 5.00. `Cc1c(F)cc(C(=O)NC2CC2)cc1-c1ccc2c(cnn2-c2ccc(S(C)(=O)=O)cc2)c1` was tested, and the pIC50 was > 5.00. `CNC(=O)c1cc(F)c(C)c(-c2ccc3c(cnn3-c3ccccc3)c2)c1` was tested, and the pIC50 was > 5.00. In the case of `Cc1c(F)cc(C(=O)NC2CC2)cc1-c1ccc2c(cnn2-c2ccc(NCC3CCCO3)cc2)c1` (configuration not stated), the pIC50 was > 5.00. `COc1ccc(-c2noc3cc(-c4cc(C(=O)NC5CC5)cc(F)c4C)ccc23)cc1` was tested, and the pIC50 was > 5.00. `Cc1c(F)cc(C(=O)Nc2ccnn2C)cc1-c1ccc2c(-c3ccc(F)cc3)n[nH]c2c1` was tested, and the pIC50 was > 5.00. `CCNC(=O)c1cc(F)c(C)c(-c2ccc3c(-c4ccnc(C)c4)n[nH]c3c2)c1` was tested, and the pIC50 was > 5.00. For `Cc1c(F)cc(C(=O)NC2CC2)cc1-c1ccc2c(cnn2Cc2ccccc2)c1`, the pIC50 was > 5.00. With `Cc1c(F)cc(C(N)=O)cc1-c1ccc2c(cnn2-c2ccccc2)c1` the pIC50 was > 5.00. In the case of `Cc1cnn(C)c1NC(=O)c1cc(F)c(C)c(-c2ccc3c(-c4ccc(F)cc4)n[nH]c3c2)c1`, the pIC50 was > 5.00. In the case of `CCNC(=O)c1cc(F)c(C)c(-c2ccc3c(-c4ncccn4)n[nH]c3c2)c1`, the pIC50 was > 5.00. `Cc1c(F)cc(C(=O)NC2CC2)cc1-c1ccc2c(cnn2Cc2cccnc2)c1` was tested, and the pIC50 was > 5.00. For `Cc1c(F)cc(C(=O)NC2CC2)cc1-c1ccc2c(cnn2-c2ccc(C(F)(F)F)cc2)c1`, the pIC50 was > 5.00. For `CCNC(=O)c1cc(F)c(C)c(-c2ccc3c(-c4cnc(C)n4C)n[nH]c3c2)c1`, the pIC50 was > 5.00. `Cc1c(F)cc(C(=O)Nc2cccnn2)cc1-c1ccc2c(cnn2-c2ccccc2)c1` was tested, and the pIC50 was > 5.00. In the case of `Cc1c(F)cc(C(=O)NC2CC2)cc1-c1ccc2c(ccn2-c2cccc(C#N)c2)c1`, the pIC50 was > 5.00. In the case of `Cc1c(F)cc(C(=O)NC2CC2)cc1-c1ccc2c(cnn2-c2ccc(NCC3CCCCC3)cc2)c1`, the pIC50 was > 5.00. With `Cc1ccc(C(=O)Nc2c(C)cnn2C)cc1-c1ccc2c(-c3ccc(F)cc3)n[nH]c2c1` the pIC50 was > 5.00. With `Cc1c(F)cc(C(=O)NC2CC2)cc1-c1ccc2c(cnn2-c2ccccc2)c1` the pIC50 was > 5.00. With `Cc1c(F)cc(C(=O)NC2CC2)cc1-c1ccc2c(cnn2Cc2ccc[n+]([O-])c2)c1` the pIC50 was > 5.00. For `Cc1c(F)cc(C(=O)NC2CC2)cc1-c1ccc2c(-c3ccc(O)cc3)noc2c1`, the pIC50 was > 5.00. With `Cc1cc(F)ccc1-n1ncc2cc(-c3cc(C(=O)NC4CC4)cc(F)c3C)ccc21` the pIC50 was > 5.00. In the case of `CCNC(=O)c1cc(F)c(C)c(-c2ccc3c(-c4cccc[n+]4[O-])n[nH]c3c2)c1`, the pIC50 was > 5.00. For `Cc1c(F)cc(C(=O)NC2CC2)cc1-c1ccc2c(cnn2-c2ccc(N3CCOCC3)cc2)c1`, the pIC50 was > 5.00. In the case of `CCNC(=O)c1ccc(C)c(-c2ccc3c(-c4ccc(F)cc4)n[nH]c3c2)c1`, the pIC50 was > 5.00. In the case of `Cc1c(F)cc(C(=O)NC2CC2)cc1-c1ccc2c(cnn2Cc2cccc[n+]2[O-])c1`, the pIC50 was > 5.00. With `CCNC(=O)c1cc(F)c(C)c(-c2ccc3c(-c4ccccn4)n[nH]c3c2)c1` the pIC50 was > 5.00. `CCNC(=O)c1ccc(C)c(-c2ccc3c(-c4ccc(N5CCOCC5)nc4)n[nH]c3c2)c1` was tested, and the pIC50 was > 5.00. In the case of `Cc1c(F)cc(C(=O)NC2CC2)cc1-c1ccc2c(cnn2-c2ccc(NCCCN(C)C)cc2)c1`, the pIC50 was > 5.00. In the case of `Cc1cc(Cn2ncc3cc(-c4cc(C(=O)NC5CC5)cc(F)c4C)ccc32)no1`, the pIC50 was > 5.00. With `CNC(=O)Cc1ccc(-n2ncc3cc(-c4cc(C(=O)NC5CC5)cc(F)c4C)ccc32)cc1` the pIC50 was > 5.00. For `Cc1c(F)cc(C(=O)NCC2CC2)cc1-c1ccc2c(cnn2-c2ccccc2)c1`, the pIC50 was > 5.00. With `Cc1c(F)cc(C(=O)Nc2cc[nH]n2)cc1-c1ccc2c(-c3ccc(F)cc3)n[nH]c2c1` the pIC50 was > 5.00. `CCNC(=O)c1cc(F)c(C)c(-c2ccc3c(-c4ccc(F)cc4C)n[nH]c3c2)c1` was tested, and the pIC50 was > 5.00. `CCNC(=O)c1ccc(C)c(-c2ccc3c(-c4cncnc4)n[nH]c3c2)c1` was tested, and the pIC50 was > 5.00. In the case of `Cc1c(F)cc(C(=O)NC2CC2)cc1-c1ccc2c(cnn2-c2ccc(Br)cc2)c1`, the pIC50 was > 5.00. `CCCCNC(=O)c1cc(F)c(C)c(-c2ccc3c(cnn3-c3ccccc3)c2)c1` was tested, and the pIC50 was > 5.00. In the case of `CCNC(=O)c1ccc(-c2n[nH]c3cc(-c4cc(C(=O)NCC)ccc4C)ccc23)nc1`, the pIC50 was > 5.00. `Cc1c(F)cc(C(=O)NC2CC2)cc1-c1ccc2c(cnn2Cc2ccncc2)c1` was tested, and the pIC50 was > 5.00. In the case of `Cc1cc(-n2ncc3cc(-c4cc(C(=O)NC5CC5)cc(F)c4C)ccc32)nc(C)n1`, the pIC50 was > 5.00. In the case of `Cc1cccc(-n2ncc3cc(-c4cc(C(=O)NC5CC5)cc(F)c4C)ccc32)c1`, the pIC50 was > 5.00. `CCNC(=O)c1ccc(C)c(-c2ccc3c(-c4ccc(OCC)cc4)n[nH]c3c2)c1` was tested, and the pIC50 was > 5.00. In the case of `Cc1c(F)cc(C(=O)Nc2ccc(F)cc2)cc1-c1ccc2c(cnn2-c2ccccc2)c1`, the pIC50 was > 5.00. With `CCCNC(=O)c1cc(F)c(C)c(-c2ccc3c(cnn3-c3ccccc3)c2)c1` the pIC50 was > 5.00. `Cc1ccc(C(=O)NC2CCC2)cc1-c1ccc2c(cnn2-c2ccc(F)cc2)c1` was tested, and the pIC50 was > 5.00. In the case of `Cc1ccc(C(=O)Nc2c(C)noc2C)cc1-c1ccc2c(-c3ccc(F)cc3)n[nH]c2c1`, the pIC50 was > 5.00. With `CCNC(=O)c1cc(F)c(C)c(-c2ccc3c(-c4c(C)noc4C)n[nH]c3c2)c1` the pIC50 was > 5.00. `CCNC(=O)c1cc(F)c(C)c(-c2ccc3c(-c4ccc(F)cc4OC)n[nH]c3c2)c1` was tested, and the pIC50 was > 5.00. With `CCNC(=O)c1ccc(C)c(-c2ccc3c(-c4cnccn4)n[nH]c3c2)c1` the pIC50 was > 5.00. For `CCNC(=O)c1cc(F)c(C)c(-c2ccc3c(-c4ccc(C(F)(F)F)cc4)n[nH]c3c2)c1`, the pIC50 was > 5.00. In the case of `CCNC(=O)c1cc(F)c(C)c(-c2ccc3c(-c4cccnc4OC)n[nH]c3c2)c1`, the pIC50 was > 5.00. `Cc1ccc(C(=O)NC2CC2)cc1-c1ccc2c(cnn2-c2ccc(F)cc2)c1` was tested, and the pIC50 was > 5.00. For `Cc1c(F)cc(C(=O)NC2CC2)cc1-c1ccc2c(cnn2-c2ccc(NC3CCOCC3)cc2)c1`, the pIC50 was > 5.00. `COc1ccc(C2N=Nc3cc(-c4cc(C(=O)NC5CC5)ccc4C)ccc32)cc1` (configuration not stated) was tested, and the pIC50 was > 5.00. In the case of `COCCNc1ccc(-n2ncc3cc(-c4cc(C(=O)NC5CC5)cc(F)c4C)ccc32)cc1`, the pIC50 was > 5.00. In the case of `Cc1c(F)cc(C(=O)NC2CC2)cc1-c1ccc2c(cnn2-c2ccc(NCC(O)CO)cc2)c1` (configuration not stated), the pIC50 was > 5.00. `CCNC(=O)c1cc(F)c(C)c(-c2ccc3c(cnn3-c3ccccc3)c2)c1` was tested, and the pIC50 was > 5.00.
